The conditions of series [1]: for Tissue distribution, Blood / Tissue distribution, Brain / Tissue distribution, Femur / Tissue distribution, Heart / Tissue distribution, Kidney / Tissue distribution, L.I. / Tissue distribution, Liver / Tissue distribution, Lung / Tissue distribution, Muscle / Tissue distribution, Rib / Tissue distribution, S.I. / Tissue distribution, Skull / Tissue distribution, Spleen / Tissue distribution, Stomach: +/- SD; for Femur/Blood ratio / Femur/Kidneys ratio / Femur/Liver ratio / Femur/Spleen ratio: Balb C mice; for femur to blood and femur to tissue ratios compared to cationic radium-223 (in words): chelates at 4 hours vs radium-223 at 6 hours after injection, for some organs. As for the experimental part: The biodistribution of thorium and actinium bound to polyphosphonate was studied in mice.
Balb/C mice with a bodyweight in the range of 11–16 g were used in the biodistribution experiments. The compounds were administered by intravenous injection of 100–200 μl of the preparation for each animal in paired label arrangement. The compounds ^228Ac-DOTMP, ^227Th-DOTMP, ^227Th-DTMP and ^227Th-acetate/MES were investigated. Approximately 5 kBq of ^[…] and 5 kBq of ^228Ac was injected. Animals were sacrificed by cervical dislocation. The tissue distribution was determined on 3 mice for each pair of compounds. The tissue distribution was determined after 4 hours for ^228Ac-DOTMP, ^227Th-DOTMP, ^227Th-DTMP and ^227Th-acetate.
In general, radioactivity in the tissue samples was measured by using a NaI (Tl) well-type detector and by liquid scintillation counting (Beckmann LS6500, Beckmann, Fullerton, Calif., USA). ^227Th was measured by using a HPGe detector (Canberra, Conn, USA) and also by liquid scintillation counting after dissolution of tissue samples and allowing decay of ^228Ac. ^228Ac was measured by the HPGe detector and the NaI(Tl) detector.
Samples of the radioactive preparations of the nuclides were used as references to account for physical decay and radiation crossover in the detection procedures.

For series [2] the following is noted: cationic species, mice, published data; cited from earlier work.
[3] abbreviates: 4 hours after injection, i.v., Balb/C mice.
Where [4] appears, read: bone seeking chelates, 4 hours after injection.
[5] abbreviates: cationic radium-223, 6 hours after injection.

The source of these data is US7056275B2, “Radiotherapy” (Algeta A/S, priority 2000, dated 2006).

Like-named read-outs stand apart in the source and are kept apart here. Some results are limits rather than exact numbers.

In the case of `O=P([O-])(O)CN1CCN(CP(=O)([O-])O)CCN(CP(=O)([O-])O)CCN(CP(=O)([O-])O)CC1.[227Th+4]` [Th-227 DOTMP], in series [1] (setting [3]), the “Tissue distribution, Blood” value is reported as below 0.1 % I.D./g; the “Tissue distribution, Brain” value is given as below 0.1 % I.D./g; the “Tissue distribution, Femur” value was determined as 20.55 ± 2.21 % I.D./g; the “Tissue distribution, Heart” value is on record as below 0.1 % I.D./g. Also, in series [1] (setting [3]), the “Tissue distribution, Kidney” value is listed as 3.43 ± 1.70 % I.D./g; the “Tissue distribution, L.I.” value turned out to be 0.19 ± 0.10 % I.D./g; the “Tissue distribution, Liver” value is on record as 0.39 ± 0.19 % I.D./g; the “Tissue distribution, Lung” value came out at 0.18 ± 0.09 % I.D./g. Moreover, in series [1] (setting [3]), the “Tissue distribution, Muscle” value was 0.29 ± 0.17 % I.D./g; the “Tissue distribution, Rib” value amounted to 11.06 ± 3.81 % I.D./g; the “Tissue distribution, S.I.” value is 0.14 ± 0.08 % I.D./g; the “Tissue distribution, Skull” value is on record as 10.8 ± 2.94 % I.D./g. Besides, in series [1] (setting [3]), the “Tissue distribution, Spleen” value came out at 0.51 ± 0.14 % I.D./g and the “Tissue distribution, Stomach” value was 0.15 ± 0.05 % I.D./g. Besides, the “Tissue distribution, Urine” value in series [1] (4 hours after injection, i.v., Balb/C mice, n = 1) is 21.1 % I.D./g. Further, in series [1] (setting [4]), the Femur/Blood ratio was above 196, the Femur/Kidneys ratio is recorded as 6.0, the Femur/Liver ratio worked out at 52.7 and the Femur/Spleen ratio amounted to 40.3. In series [1], the “femur to blood and femur to tissue ratios compared to cationic radium-223 (in words)” value was “better”.
In the case of `CC(=O)[O-].CC(=O)[O-].CC(=O)[O-].[Ac+3]` [cationic actinium], the “selective bone uptake relative to soft tissue uptake (in words)” value in series [2] is reported as “does not show sufficient selective bone uptake relative to soft tissue uptake”.
Take `O=P([O-])(O)CN(CCN(CP(=O)([O-])O)CP(=O)([O-])O)CCN(CP(=O)([O-])O)CP(=O)(O)O.[227Th+4]` [Th-227 DTMP]: in series [1] (setting [3]), the “Tissue distribution, Blood” value is on record as below 0.1 % I.D./g; the “Tissue distribution, Brain” value is below 0.1 % I.D./g; the “Tissue distribution, Femur” value is 19.58 ± 3.58 % I.D./g; the “Tissue distribution, Heart” value is recorded as below 0.1 % I.D./g. In series [1] (setting [3]), the “Tissue distribution, Kidney” value turned out to be 1.38 ± 0.54 % I.D./g; the “Tissue distribution, L.I.” value is 0.15 ± 0.03 % I.D./g; the “Tissue distribution, Liver” value turned out to be 0.40 ± 0.43 % I.D./g; the “Tissue distribution, Lung” value was 0.12 ± 0.04 % I.D./g. Moreover, in series [1] (setting [3]), the “Tissue distribution, Muscle” value was 0.63 ± 0.33 % I.D./g; the “Tissue distribution, Rib” value is 8.83 ± 5.06 % I.D./g; the “Tissue distribution, S.I.” value worked out at 0.56 ± 0.63 % I.D./g; the “Tissue distribution, Skull” value came to 12.3 ± 3.14 % I.D./g. In series [1] (setting [3]), the “Tissue distribution, Spleen” value came out at 0.13 ± 0.04 % I.D./g and the “Tissue distribution, Stomach” value came out at 0.70 ± 0.80 % I.D./g. For the same compound, in series [1] (setting [4]), the Femur/Blood ratio is above 196, the Femur/Kidneys ratio is 14.2, the Femur/Liver ratio turned out to be 49 and the Femur/Spleen ratio was 151. The “femur to blood and femur to tissue ratios compared to cationic radium-223 (in words)” value in series [1] is on record as “better”.
Take `O=P([O-])(O)CN1CCN(CP(=O)([O-])O)CCN(CP(=O)(O)O)CCN(CP(=O)([O-])O)CC1.[228Ac+3]` [Ac-228 DOTMP]: in series [1] (setting [3]), the “Tissue distribution, Blood” value is recorded as below 0.1 % I.D./g; the “Tissue distribution, Brain” value is reported as below 0.1 % I.D./g; the “Tissue distribution, Femur” value is on record as 20.67 ± 2.23 % I.D./g; the “Tissue distribution, Heart” value is given as below 0.1 % I.D./g. In series [1] (setting [3]), the “Tissue distribution, Kidney” value is on record as 2.7 ± 2.4 % I.D./g; the “Tissue distribution, L.I.” value came to 0.20 ± 0.11 % I.D./g; the “Tissue distribution, Liver” value was found to be 1.26 ± 0.9 % I.D./g; the “Tissue distribution, Lung” value was 0.20 ± 0.10 % I.D./g. In addition, in series [1] (setting [3]), the “Tissue distribution, Muscle” value worked out at 0.30 ± 0.11 % I.D./g; the “Tissue distribution, Rib” value amounted to 10.5 ± 3.5 % I.D./g; the “Tissue distribution, S.I.” value stood at 0.14 ± 0.07 % I.D./g; the “Tissue distribution, Skull” value is 10.7 ± 2.7 % I.D./g. Also, in series [1] (setting [3]), the “Tissue distribution, Spleen” value worked out at 0.51 ± 0.10 % I.D./g. In series [1] (setting [4]), the Femur/Blood ratio is on record as above 196, the Femur/Kidneys ratio is given as 7.7, the Femur/Liver ratio is listed as 16.4 and the Femur/Spleen ratio was determined as 41.3. The “femur to blood and femur to tissue ratios compared to cationic radium-223 (in words)” value in series [1] is listed as “better”.
Regarding `CC(=O)[O-].CC(=O)[O-].CC(=O)[O-].CC(=O)[O-].[227Th+4]` [^227Th-acetate, reference compound], in series [1] (setting [3]), the “Tissue distribution, Blood” value was 1.2 ± 0.4 % I.D./g; the “Tissue distribution, Brain” value is on record as below 0.1 % I.D./g; the “Tissue distribution, Femur” value is reported as 23.4 ± 6.9 % I.D./g; the “Tissue distribution, Heart” value was determined as 2.6 ± 0.2 % I.D./g. Also, in series [1] (setting [3]), the “Tissue distribution, Kidney” value is reported as 7.7 ± 0.7 % I.D./g; the “Tissue distribution, L.I.” value is given as 1.7 ± 0.1 % I.D./g; the “Tissue distribution, Liver” value is 56.5 ± 9.4 % I.D./g; the “Tissue distribution, Lung” value is 2.6 ± 0.4 % I.D./g. Moreover, in series [1] (setting [3]), the “Tissue distribution, Muscle” value came to 1.1 % I.D./g; the “Tissue distribution, Rib” value is listed as 14.6 ± 4.4 % I.D./g; the “Tissue distribution, S.I.” value amounted to 2.3 ± 0.1 % I.D./g; the “Tissue distribution, Skull” value worked out at 18.9 ± 7.6 % I.D./g. Besides, in series [1] (setting [3]), the “Tissue distribution, Spleen” value stood at 14.2 ± 2.8 % I.D./g and the “Tissue distribution, Stomach” value came out at 4.6 ± 1.0 % I.D./g. For the same compound, in series [1] (4 hours after injection, mice), the “bone uptake (in words)” value was “high and similar to the observed values with the bone-seeking polyphosphonate complexing agents”; the “suitability for in vivo bone targeting given affinity for soft tissues, e.g. liver and spleen (in words)” value is listed as “unsuitable for in vivo bone targeting”.
As for `[223Ra]` [^223Ra, reference compound], in series [1] (setting [5]), the Femur/Blood ratio is recorded as 129, the Femur/Kidneys ratio was 6.4, the Femur/Liver ratio is 29.1 and the Femur/Spleen ratio is 6.4.
